Assays:
Type in all cases: cell-based
BRAF V600E = BRAF V600E (Homo sapiens, UniProt P15056, V600E); test: Global proteomics profiling, A375 cells; design: endogenous in cells; host or cells: A375; settings: 300 nM, 24 hours, compared to 300 nM dabrafenib treatment
Method: Each cell line was treated in duplicate with either DMSO or Compound 157 (final concentration 300 nM) for 24 hours in an incubator at 37° C. with 5% CO2. After the 24-hour incubation, cells were harvested, washed twice with PBS, and snap frozen in liquid nitrogen. Samples were re-suspended in lysis buffer [8 M urea, 50 mM HEPES (pH 8.5), 50 mM NaCl, 1× protease inhibitor cocktail] and lysed by sonication at 4° C. with 85% amplitude in a pulse setting with 30 seconds on and 30 seconds off for a total sonication time of 5 minutes. Lysates were centrifuged at maximum speed for 10 minutes at 4° C. and the supernatant collected, reduced for 1 hour at room temperature with 5 mM TCEP, and the cysteine residues were then alkylated with 15 mM iodoacetamide (room temperature, in dark, 30 minutes). Protein content was extracted by methanol-chloroform precipitation and subsequent ice-cold acetone washes. Protein pellets were resuspended in 8 M urea, 50 mM HEPES (pH 8.5) buffer and protein concentrations were measured by BCA assay. […]
For peptide tandem mass tag (TMT) labeling, 100 μg of peptides per sample was prepared at […] concentration in 200 mM HEPES (pH 8.5), 30% acetonitrile (ACN) and each the specific TMT reagent. […] TMT reporter ion intensities were quantified by extracting the signal-to-noise ratio for each. […]

A375-NRAS^Q61K cells = test: CellTiter-Glo growth inhibition assay, A375-NRAS^Q61K cells; settings: 96 hr, mean of at least n = 3
Method: A375-NRAS^Q61K cells (harboring BRAF homozygous V600E mutation and NRAS homozygous Q61K mutation) were purchased from ATCC. DMEM Medium (without phenol red and supplemented with L-glutamine) was purchased from Corning (Corning, NY, USA). CellTiter-Glo® 2.0 Assay was purchased from Promega (Madison, WI, USA). Cell culture flasks and 384-well microplates were acquired from VWR (Radnor, PA, USA) or Corning (Corning, NY, USA).
A375-NRAS^Q61K cell viability was determined based on quantification of ATP using CellTiter-Glo® 2.0 luminescent Assay kit, which signals the presence of metabolically-active cells. Briefly, test compound was added to 384-well plates at a top concentration of 10 μM with 14 points, half log titration in duplicates. A375-NRAS^Q61K cells were seeded into the 384-well plates in DMEM medium containing 10% FBS at a cell density of 250 cells per well. Cells treated in the absence of the test compound were the negative control, normalized to 100% viability, and cells treated in the absence of CellTiter-Glo® 2.0 were the positive control, normalized to 0% viability. A375 cells were incubated at 37° C. with 5% CO2 for 96 hr. CellTiter-Glo reagent was then added to the cells and Luminescence was acquired on EnVision™ Multilabel Reader (PerkinElmer, Santa Clara, CA, USA).

WT BRAF = WT BRAF (Homo sapiens, UniProt P15056); test: Western blot of WT BRAF and pERK levels in HCT-116 cells; settings: HCT-116 cells with endogenous WT BRAF
ERK phosphorylation = test: Western blot of ERK phosphorylation in A375 cells expressing NRAS^Q61K; settings: 24 hours

Sequence of BRAF V600E (P15056 whole entry V600E): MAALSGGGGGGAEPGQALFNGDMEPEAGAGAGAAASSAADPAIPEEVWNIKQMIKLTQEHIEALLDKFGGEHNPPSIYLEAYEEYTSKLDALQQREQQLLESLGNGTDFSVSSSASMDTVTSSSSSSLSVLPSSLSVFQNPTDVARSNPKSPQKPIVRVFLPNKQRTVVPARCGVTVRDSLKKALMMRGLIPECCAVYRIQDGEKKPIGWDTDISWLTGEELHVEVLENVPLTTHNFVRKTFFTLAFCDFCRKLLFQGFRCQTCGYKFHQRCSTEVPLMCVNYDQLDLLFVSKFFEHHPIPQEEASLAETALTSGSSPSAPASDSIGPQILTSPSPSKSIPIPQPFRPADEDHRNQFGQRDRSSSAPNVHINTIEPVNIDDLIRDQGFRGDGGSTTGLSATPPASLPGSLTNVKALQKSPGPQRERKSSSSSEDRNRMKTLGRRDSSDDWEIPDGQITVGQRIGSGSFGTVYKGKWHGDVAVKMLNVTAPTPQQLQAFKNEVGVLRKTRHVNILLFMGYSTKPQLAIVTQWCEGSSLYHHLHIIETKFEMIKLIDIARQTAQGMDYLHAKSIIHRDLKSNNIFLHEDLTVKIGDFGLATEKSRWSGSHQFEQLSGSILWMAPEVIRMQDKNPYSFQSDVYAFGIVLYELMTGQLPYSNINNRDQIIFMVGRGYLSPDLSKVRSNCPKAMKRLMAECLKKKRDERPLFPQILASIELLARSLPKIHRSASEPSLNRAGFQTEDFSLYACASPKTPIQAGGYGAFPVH
Sequence of WT BRAF (P15056 whole entry): as the sequence (P15056 whole entry V600E) above, with E600V counted along it

With `CCN(C)S(=O)(=O)Nc1ccc(F)c(Oc2ccc3ncn([C@H]4COC5(CCN(C(=O)CC6(O)CCN(c7cc8c(cc7F)c(N7CCC(=O)NC7=O)nn8C)CC6)CC5)C4)c(=O)c3c2)c1C#N` [Compound 157, (3R)-3-[6-[2-cyano-3-[[ethyl(methyl)sulfamoyl]amino]-6-fluorophenoxy]-4-oxoquinazolin-3-yl]-8-[2-[1-[3-(2,4-dioxo-1,3-diazinan-1-yl)-5-fluoro-1-methylindazol-6-yl]-4-hydroxypiperidin-4-yl]acetyl]-1-oxa-8-azaspiro[4.5]decane] the “BRAF^V600E protein remaining” value (BRAF V600E) was 27%, the GI50 (A375-NRAS^Q61K cells) was 55 nM and the “WT BRAF levels and phosphorylation of ERK” value (WT BRAF) was “minimal impact”. For the same molecule, the “ERK phosphorylation, in combination with trametinib” value (ERK phosphorylation; with 1 nM trametinib) was “completely suppressed” and the “ERK phosphorylation, alone” value (ERK phosphorylation; without trametinib) was “can suppress MAPK signaling”.

— patent publication US12486253B2, “Therapeutics for the degradation of mutant BRAF” (C4 THERAPEUTICS, INC., priority 2021, dated 2025)
